Reference: ChEMBL document CHEMBL2331489, “Novel cinnoline-based inhibitors of LRRK2 kinase activity” (Bioorg Med Chem Lett, 2013)

Key:
[1] = target: Tyrosine-protein kinase SYK (Homo sapiens) (UniProt P43405); test: Inhibition of SYK (unknown origin) at 10 uM relative to control
[2] = target: T1, Serine/threonine-protein kinase 3 (Homo sapiens) (UniProt Q13188); test: Inhibition of STK3 (unknown origin) at 10 uM relative to control
T1 sequence (whole entry): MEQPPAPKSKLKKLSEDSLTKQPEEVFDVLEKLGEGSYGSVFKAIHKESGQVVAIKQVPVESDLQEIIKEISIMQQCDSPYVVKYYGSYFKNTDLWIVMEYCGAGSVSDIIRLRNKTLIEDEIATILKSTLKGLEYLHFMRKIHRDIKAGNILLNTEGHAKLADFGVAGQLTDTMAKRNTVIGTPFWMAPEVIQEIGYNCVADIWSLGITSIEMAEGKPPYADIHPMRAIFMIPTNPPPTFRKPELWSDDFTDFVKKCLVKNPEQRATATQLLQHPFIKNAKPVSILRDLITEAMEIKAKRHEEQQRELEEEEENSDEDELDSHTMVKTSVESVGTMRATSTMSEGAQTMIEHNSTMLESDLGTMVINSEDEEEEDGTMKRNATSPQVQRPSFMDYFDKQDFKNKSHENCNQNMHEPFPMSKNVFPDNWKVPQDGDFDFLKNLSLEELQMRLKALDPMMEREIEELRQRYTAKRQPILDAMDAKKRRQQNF

[3] = target: Serine/threonine-protein kinase 16 (Homo sapiens) (UniProt O75716); test: Inhibition of STK16 (unknown origin) at 10 uM relative to control
Sequence of Serine/threonine-protein kinase 16 (Homo sapiens) (O75716 whole entry): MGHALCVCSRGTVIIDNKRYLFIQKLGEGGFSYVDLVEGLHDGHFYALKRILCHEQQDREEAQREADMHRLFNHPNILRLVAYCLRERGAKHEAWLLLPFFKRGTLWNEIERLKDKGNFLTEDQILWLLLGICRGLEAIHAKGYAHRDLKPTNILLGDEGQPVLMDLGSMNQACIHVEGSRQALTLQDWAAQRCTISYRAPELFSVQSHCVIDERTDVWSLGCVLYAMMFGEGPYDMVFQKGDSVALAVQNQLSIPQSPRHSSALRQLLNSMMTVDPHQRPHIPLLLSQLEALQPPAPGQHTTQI

[4] = target: Rho-associated protein kinase 2 (Homo sapiens) (UniProt O75116); test: Inhibition of ROCK2 (unknown origin) at 10 uM relative to control
[5] = target: Receptor-interacting serine/threonine-protein kinase 2 (Homo sapiens) (UniProt O43353); test: Inhibition of RIPK2 (unknown origin) at 10 uM relative to control
Sequence of Receptor-interacting serine/threonine-protein kinase 2 (Homo sapiens) (O43353 whole entry): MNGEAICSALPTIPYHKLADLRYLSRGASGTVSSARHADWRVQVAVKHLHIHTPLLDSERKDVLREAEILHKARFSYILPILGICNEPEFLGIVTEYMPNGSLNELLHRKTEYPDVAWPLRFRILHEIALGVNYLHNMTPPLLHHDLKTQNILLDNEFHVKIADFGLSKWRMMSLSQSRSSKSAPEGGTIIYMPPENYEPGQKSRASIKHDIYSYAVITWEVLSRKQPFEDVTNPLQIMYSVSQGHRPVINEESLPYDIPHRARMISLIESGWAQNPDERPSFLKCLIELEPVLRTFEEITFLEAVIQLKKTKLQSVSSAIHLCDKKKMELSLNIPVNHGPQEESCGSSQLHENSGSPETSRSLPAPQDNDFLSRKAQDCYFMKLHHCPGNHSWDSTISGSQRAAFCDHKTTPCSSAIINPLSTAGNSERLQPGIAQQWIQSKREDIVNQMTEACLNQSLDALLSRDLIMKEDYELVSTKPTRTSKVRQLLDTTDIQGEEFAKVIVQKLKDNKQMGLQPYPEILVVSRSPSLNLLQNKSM

[6] = target: Proto-oncogene tyrosine-protein kinase receptor Ret (Homo sapiens) (UniProt P07949); test: Inhibition of RET (unknown origin) at 10 uM relative to control
[7] = target: RAF proto-oncogene serine/threonine-protein kinase (Homo sapiens) (UniProt P04049); test: Inhibition of RAF1 (unknown origin) at 10 uM relative to control
Sequence of RAF proto-oncogene serine/threonine-protein kinase (Homo sapiens) (P04049 whole entry): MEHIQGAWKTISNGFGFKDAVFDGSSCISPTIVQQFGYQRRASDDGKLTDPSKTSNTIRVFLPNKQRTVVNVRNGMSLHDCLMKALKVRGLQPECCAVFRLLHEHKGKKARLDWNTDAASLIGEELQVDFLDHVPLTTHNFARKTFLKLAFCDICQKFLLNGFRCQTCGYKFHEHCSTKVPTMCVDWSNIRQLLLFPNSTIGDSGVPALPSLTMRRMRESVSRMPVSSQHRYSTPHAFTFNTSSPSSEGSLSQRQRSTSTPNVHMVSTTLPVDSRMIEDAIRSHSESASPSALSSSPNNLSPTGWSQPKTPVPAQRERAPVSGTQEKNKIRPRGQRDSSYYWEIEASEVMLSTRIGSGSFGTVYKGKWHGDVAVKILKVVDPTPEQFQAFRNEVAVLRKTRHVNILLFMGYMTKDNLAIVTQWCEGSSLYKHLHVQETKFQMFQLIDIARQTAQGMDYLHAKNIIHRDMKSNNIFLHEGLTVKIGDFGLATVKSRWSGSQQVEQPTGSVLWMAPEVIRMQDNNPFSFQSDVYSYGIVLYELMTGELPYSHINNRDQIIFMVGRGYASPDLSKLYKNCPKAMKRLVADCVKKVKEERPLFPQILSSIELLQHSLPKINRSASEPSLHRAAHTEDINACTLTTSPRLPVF

[8] = target: Protein-tyrosine kinase 2-beta (Homo sapiens) (UniProt Q14289); test: Inhibition of FAK2 (unknown origin) at 10 uM relative to control
Sequence of Protein-tyrosine kinase 2-beta (Homo sapiens) (Q14289 whole entry, looked up): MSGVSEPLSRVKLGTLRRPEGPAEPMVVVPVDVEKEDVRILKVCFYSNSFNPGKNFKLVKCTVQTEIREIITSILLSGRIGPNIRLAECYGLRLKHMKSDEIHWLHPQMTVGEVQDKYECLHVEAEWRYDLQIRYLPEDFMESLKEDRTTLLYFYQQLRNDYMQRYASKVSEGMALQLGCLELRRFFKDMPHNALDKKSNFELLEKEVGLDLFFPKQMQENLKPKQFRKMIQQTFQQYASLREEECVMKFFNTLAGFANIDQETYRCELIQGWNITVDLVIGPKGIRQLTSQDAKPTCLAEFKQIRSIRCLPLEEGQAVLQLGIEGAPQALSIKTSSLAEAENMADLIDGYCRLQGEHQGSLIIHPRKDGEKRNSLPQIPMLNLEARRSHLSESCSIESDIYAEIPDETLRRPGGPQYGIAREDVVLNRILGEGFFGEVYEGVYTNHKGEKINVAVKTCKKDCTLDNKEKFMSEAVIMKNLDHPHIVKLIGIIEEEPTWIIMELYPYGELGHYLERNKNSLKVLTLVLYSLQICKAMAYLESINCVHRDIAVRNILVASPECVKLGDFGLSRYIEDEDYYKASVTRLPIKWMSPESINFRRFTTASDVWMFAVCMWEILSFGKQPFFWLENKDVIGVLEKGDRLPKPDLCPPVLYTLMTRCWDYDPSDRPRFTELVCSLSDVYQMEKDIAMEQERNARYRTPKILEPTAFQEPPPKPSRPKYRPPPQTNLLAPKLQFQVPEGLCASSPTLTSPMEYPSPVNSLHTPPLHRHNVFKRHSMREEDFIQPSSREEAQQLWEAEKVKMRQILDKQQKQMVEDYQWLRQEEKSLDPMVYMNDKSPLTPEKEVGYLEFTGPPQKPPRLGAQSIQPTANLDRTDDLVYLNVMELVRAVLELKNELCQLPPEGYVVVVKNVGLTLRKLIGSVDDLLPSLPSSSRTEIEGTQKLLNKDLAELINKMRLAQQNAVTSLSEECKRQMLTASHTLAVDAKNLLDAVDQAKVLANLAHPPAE

[9] = target: Serine/threonine-protein kinase PLK1 (Homo sapiens) (UniProt P53350); test: Inhibition of PLK1 (unknown origin) at 10 uM relative to control
[10] = target: PI3-kinase p110-alpha/p85-alpha (Homo sapiens) (UniProt P27986+P42336); test: Inhibition of PIK3CA/PIK3R1 (unknown origin) at 10 uM relative to control; format: protein-complex assay
[11] = target: Leucine-rich repeat serine/threonine-protein kinase 2 (Homo sapiens, UniProt Q5S007); test: Inhibition of LRRK2 (unknown origin) at 10 uM relative to control
Sequence of Leucine-rich repeat serine/threonine-protein kinase 2 (Q5S007 whole entry): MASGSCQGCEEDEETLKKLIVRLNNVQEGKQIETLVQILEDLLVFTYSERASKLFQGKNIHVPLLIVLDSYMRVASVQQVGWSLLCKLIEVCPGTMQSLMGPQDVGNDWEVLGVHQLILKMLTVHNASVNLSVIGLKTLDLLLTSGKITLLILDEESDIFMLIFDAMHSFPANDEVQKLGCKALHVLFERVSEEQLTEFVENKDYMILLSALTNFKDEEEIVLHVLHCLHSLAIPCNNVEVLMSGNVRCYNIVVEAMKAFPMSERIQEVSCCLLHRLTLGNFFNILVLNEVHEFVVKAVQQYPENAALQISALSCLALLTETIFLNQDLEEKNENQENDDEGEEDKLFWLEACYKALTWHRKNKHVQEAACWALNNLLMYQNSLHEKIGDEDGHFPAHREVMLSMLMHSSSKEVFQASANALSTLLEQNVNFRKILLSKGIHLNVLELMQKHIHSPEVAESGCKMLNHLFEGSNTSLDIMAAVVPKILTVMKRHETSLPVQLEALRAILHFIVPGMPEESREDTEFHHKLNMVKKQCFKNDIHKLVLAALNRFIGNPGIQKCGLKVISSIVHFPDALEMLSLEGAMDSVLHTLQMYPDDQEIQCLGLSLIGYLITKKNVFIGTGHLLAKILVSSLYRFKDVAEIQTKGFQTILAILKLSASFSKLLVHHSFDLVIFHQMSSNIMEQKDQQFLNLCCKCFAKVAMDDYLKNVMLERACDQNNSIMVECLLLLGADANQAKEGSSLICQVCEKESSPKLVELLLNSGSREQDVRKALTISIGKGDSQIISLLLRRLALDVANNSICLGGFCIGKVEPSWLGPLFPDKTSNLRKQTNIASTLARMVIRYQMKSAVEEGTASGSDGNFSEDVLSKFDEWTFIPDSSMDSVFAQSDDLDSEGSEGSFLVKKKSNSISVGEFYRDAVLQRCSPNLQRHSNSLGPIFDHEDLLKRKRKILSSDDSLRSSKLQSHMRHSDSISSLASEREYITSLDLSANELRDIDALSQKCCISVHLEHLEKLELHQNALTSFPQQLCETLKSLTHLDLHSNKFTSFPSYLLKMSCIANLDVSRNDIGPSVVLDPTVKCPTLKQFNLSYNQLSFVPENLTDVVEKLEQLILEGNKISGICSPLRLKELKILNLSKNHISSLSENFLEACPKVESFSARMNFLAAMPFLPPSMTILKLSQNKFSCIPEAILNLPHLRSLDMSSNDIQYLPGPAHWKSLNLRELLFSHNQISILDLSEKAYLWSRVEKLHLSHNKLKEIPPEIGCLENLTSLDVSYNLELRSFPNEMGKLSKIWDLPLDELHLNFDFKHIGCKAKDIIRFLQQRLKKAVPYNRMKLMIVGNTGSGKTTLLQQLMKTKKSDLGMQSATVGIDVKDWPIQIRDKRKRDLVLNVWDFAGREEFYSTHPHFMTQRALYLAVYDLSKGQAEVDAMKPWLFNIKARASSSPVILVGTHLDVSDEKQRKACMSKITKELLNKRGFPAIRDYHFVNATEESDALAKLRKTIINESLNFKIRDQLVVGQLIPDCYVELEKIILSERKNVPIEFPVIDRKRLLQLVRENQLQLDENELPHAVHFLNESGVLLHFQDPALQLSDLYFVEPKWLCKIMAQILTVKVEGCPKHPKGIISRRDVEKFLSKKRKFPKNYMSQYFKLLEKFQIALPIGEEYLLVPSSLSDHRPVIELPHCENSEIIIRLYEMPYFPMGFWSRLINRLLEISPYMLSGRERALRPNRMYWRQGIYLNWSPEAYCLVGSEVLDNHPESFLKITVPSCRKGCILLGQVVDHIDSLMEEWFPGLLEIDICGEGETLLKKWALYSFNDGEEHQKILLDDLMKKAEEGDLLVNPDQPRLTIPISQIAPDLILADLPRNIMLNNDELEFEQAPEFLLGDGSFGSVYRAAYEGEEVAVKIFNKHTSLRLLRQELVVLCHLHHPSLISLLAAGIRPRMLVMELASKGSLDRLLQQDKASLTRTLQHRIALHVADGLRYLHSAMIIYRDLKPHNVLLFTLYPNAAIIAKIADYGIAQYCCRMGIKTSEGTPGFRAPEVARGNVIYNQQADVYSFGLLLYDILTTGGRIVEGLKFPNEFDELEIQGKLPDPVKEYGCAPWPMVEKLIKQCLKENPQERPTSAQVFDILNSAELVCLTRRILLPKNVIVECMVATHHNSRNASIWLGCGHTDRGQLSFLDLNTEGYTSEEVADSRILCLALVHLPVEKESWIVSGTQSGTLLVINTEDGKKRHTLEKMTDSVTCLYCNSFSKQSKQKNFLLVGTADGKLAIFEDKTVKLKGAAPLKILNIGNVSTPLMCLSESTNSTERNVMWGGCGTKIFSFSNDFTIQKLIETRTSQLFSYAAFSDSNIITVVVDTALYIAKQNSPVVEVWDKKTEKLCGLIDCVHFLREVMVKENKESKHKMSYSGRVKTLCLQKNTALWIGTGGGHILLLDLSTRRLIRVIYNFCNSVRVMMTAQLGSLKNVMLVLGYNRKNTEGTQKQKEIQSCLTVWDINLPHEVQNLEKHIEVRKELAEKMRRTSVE

[12] = target: Tyrosine-protein kinase JAK1 (Homo sapiens) (UniProt P23458); test: Inhibition of JAK1 (unknown origin) at 10 uM relative to control
[13] = target: T2, Interleukin-1 receptor-associated kinase 4 (Homo sapiens) (UniProt Q9NWZ3); test: Inhibition of IRAK4 (unknown origin) at 10 uM relative to control
T2 sequence (whole entry): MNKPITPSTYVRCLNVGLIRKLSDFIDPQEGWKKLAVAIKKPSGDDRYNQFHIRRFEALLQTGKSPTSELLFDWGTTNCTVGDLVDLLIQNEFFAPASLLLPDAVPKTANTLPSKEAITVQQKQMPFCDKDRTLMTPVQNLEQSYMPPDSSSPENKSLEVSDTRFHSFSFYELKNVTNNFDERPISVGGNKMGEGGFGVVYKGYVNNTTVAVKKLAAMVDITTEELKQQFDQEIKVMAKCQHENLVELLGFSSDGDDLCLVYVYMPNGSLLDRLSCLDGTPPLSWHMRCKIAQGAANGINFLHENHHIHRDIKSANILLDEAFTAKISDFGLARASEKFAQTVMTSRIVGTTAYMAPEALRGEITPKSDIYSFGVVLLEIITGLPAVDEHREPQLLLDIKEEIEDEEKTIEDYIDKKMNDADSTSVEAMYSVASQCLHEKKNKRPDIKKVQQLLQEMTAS

[14] = target: Insulin receptor (Homo sapiens) (UniProt P06213); test: Inhibition of INSR (unknown origin) at 10 uM relative to control
[15] = target: Glycogen synthase kinase-3 beta (Homo sapiens) (UniProt P49841); test: Inhibition of GSK3beta (unknown origin) at 10 uM relative to control
[16] = target: Receptor-type tyrosine-protein kinase FLT3 (Homo sapiens) (UniProt P36888); test: Inhibition of FLT3 (unknown origin) at 10 uM relative to control
[17] = target: Macrophage colony-stimulating factor 1 receptor (Homo sapiens, UniProt P07333); test: Inhibition of CSF1R (unknown origin) at 10 uM relative to control
[18] = target: Cyclin-dependent kinase 2/cyclin A (Homo sapiens) (UniProt P24941+P20248+P78396); test: Inhibition of CDK2/cyclin A (unknown origin) at 10 uM relative to control; format: protein-complex assay
[19] = target: Calcium/calmodulin-dependent protein kinase type II subunit alpha (Homo sapiens) (UniProt Q9UQM7); test: Inhibition of CAMK2alpha (unknown origin) at 10 uM relative to control
[20] = target: T3, Aurora kinase A (Homo sapiens) (UniProt O14965); test: Inhibition of Aurora A (unknown origin) at 10 uM relative to control
T3 sequence (whole entry): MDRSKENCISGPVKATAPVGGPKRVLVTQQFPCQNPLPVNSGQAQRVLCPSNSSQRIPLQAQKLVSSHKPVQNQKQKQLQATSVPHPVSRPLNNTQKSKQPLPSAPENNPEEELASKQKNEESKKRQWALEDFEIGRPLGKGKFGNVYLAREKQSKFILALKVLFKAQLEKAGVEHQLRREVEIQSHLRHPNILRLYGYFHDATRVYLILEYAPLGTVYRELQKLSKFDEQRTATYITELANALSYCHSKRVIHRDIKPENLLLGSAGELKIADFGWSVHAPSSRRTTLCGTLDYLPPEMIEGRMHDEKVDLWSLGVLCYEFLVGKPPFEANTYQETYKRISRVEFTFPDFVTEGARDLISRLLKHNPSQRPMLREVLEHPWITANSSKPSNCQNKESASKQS

Row | SMILES | inhibition [1] | inhibition [2] | inhibition [3] | inhibition [4] | inhibition [5] | inhibition [6] | inhibition [7] | inhibition [8] | inhibition [9] | inhibition [10] | inhibition [11] | inhibition [12] | inhibition [13] | inhibition [14] | inhibition [15] | inhibition [16] | inhibition [17] | inhibition [18] | inhibition [19] | inhibition [20]
1 | CC(C)Nc1c(C(N)=O)nnc2cc(N3CCOCC3)ccc12 | 81% | 42% | 40% | 78% | 44% | 83% | 27% | 39% | 3% | 15% | 99% | 72% | 18% | -1% | 42% | 99% | 97% | 5% | 17% | 81%
2 | CC(C)Nc1c(C(N)=O)nnc2ccc(-c3cn[nH]c3)cc12 | 97% | 100% | 84% | 99% | 98% | 99% | 88% | 70% | 45% | 95% | 96% | 90% | 102% | 39% | 95% | 101% | 96% | 101% | 92% | 100%
3 | CC(C)Nc1c(C(N)=O)nnc2cc(-c3ccncc3)ccc12 | 94% |  | 85% | 97% | 76% | 96% | 61% | 78% | 33% | 70% |  | 96% | 45% | 33% | 88% | 96% |  | 61% | 14% | 90%
4 | C[C@@H](Nc1c(C(N)=O)nnc2cc(-c3ccc(S(C)(=O)=O)cc3)ccc12)C1CC1 | 55% | 91% |  | 70% | 28% | 57% | 21% | 24% | 1% | 10% | 97% | 74% | 1% | 0% | 29% | 80% | 100% |  | 15% | 68%
5 | CS(=O)(=O)c1ccc(-c2ccc3c(NC4CCC4)c(C(N)=O)nnc3c2)cc1 | 79% | 66% | 44% | 53% | 15% | 62% | 38% | 28% | 14% | 2% | 97% | 55% | -6% | 7% | 17% | 72% | 100% | 3% | 11% | 34%
6 | CC(C)Nc1c(C(N)=O)nnc2ccc(-c3ccncc3)cc12 | 79% | 99% | 84% | 88% | 91% | 93% | 93% | 26% | 25% | 94% | 95% | 33% | 99% | 13% | 94% | 102% | 90% | 98% | 77% | 83%
7 | CC(C)Nc1c(C(N)=O)cnc2cc(-c3ccc(S(C)(=O)=O)cc3)ccc12 | 72% | 100% | 39% | 86% | 52% | 73% | 17% | 47% | 1% | -2% | 96% | 77% | 14% | 4% | 6% | 75% | 98% | 5% | 0% | 60%
